Entries after “also recorded” stand apart in the source; their conditions may differ. Where a SMILES comes first, the peptide text is derived from it. [ ]: non-standard residue; d: D form. Phe(4-I) = N[C@@H](Cc1ccc(I)cc1)C(=O)O
What was measured:
HIF-1α in Panc-1 cells = target: T1, HIF-1α in Panc-1 cells (Homo sapiens, UniProt Q16665); assay: Cellular thermal shift assay; type: cell-based; conditions: 40 μM, samples heated to 54 °C
T1 construct: endogenous in cells; host or cells: PANC-1
Description: Next, we used a cellular-thermal shift assay[40] to assess whether our lead molecule binds to HIF-1α in the intracellular environment. We observed a 2.9 ± 0.4-fold increased level of HIF-1α protein in Panc-1 (pancreatic cancer) cells treated with 40 μM cyclo-CRLII(4-iodo)F compared to DMSO control in samples heated to 54 °C, indicating intracellular binding of this compound to its protein target (Figure 6d). […]
highest pLDDT score was relaxes with the inbuilt amber energy minimisation and used for subsequent docking steps. HADDOCK docking was performed by assigning the HIF-1α PAS-B domain (residues 214-335) and CRLIIF residues 1, 5 and 6 as active residue binders and clustered using the inbuilt RMSD clustering algorithm.
Cellular Thermal Shift Assay
Pancreatic cancer cells (PANC-1) were plated in a T75 flask at 80% confluency overnight under normoxic conditions. The cells were then dosed with compound and incubated for 18 hours under hypoxic conditions (1% O2, 94% N2, 5% CO2, 80% Humidity). The cells were subsequently washed with PBS and divided into several aliquots, each of which was exposed to different temperatures (45°C, 48°C, 51°C, and 54°C) for 30 seconds on a thermal cycler (Bio-Rad). […] The concentration of the extracted proteins was measured using the BCA Protein Assay Kit (Sigma) following the manufacturer's instructions. […]

HIF-1α/HIF-1β PPI = target: T2, HIF-1α/HIF-1β PPI (Homo sapiens, UniProt Q16665); assay: Proximity-ligation assay (PLA) in DFX-treated HeLa cells; type: cell-based; conditions: 50 μM compound vs DMSO
T2 construct: endogenous in cells; host or cells: HeLa
Description: We used a previously reported[26] proximity-ligation assay (PLA) to assess whether cyclo-CRLII(4-iodo)F disrupts the HIF-1α/HIF-1β PPI in cells. HeLa cells were treated with the hypoxia mimic desferrioxamine (DFX) and treated with either DMSO (control) or 50 μM of cyclo-CRLII(4-iodo)F; in the control-treated samples, we observed the red puncta associated with the PLA signal from the targeted PPI (Figure 6c, upper panels).
All reagents were purchased from Fisher Scientific or Sigma Aldrich UK unless specified otherwise.
Restriction enzymes and microbiology reagents were purchased from New England Biolabs Inc., Fisher Scientific (UK) or Promega (UK) and were used as directed by the manufacturer. Primers and oligonucleotides were synthesised by Integrated DNA Technologies (UK). DNA sequencing was carried out by Eurofins MWG Operon (Germany).
Construction of the RTHS and SICLOPPS library, screening, purification of recombinant HIF proteins, and the PLA was conducted as previously described in Miranda et al., J. Am. Chem. Soc., 2013, 135(28); […]
The labelled protein was separated from unreacted dye by elution through a PD minitrap G-25 column (GE healthcare). […] Extent of labelling was measured by the absorbance obtained using the UV-vis mode on a NanoDrop ND-1000 Spectrophotometer (NanoDrop Technologies, USA). […]

T2 sequence (Q16665 whole entry): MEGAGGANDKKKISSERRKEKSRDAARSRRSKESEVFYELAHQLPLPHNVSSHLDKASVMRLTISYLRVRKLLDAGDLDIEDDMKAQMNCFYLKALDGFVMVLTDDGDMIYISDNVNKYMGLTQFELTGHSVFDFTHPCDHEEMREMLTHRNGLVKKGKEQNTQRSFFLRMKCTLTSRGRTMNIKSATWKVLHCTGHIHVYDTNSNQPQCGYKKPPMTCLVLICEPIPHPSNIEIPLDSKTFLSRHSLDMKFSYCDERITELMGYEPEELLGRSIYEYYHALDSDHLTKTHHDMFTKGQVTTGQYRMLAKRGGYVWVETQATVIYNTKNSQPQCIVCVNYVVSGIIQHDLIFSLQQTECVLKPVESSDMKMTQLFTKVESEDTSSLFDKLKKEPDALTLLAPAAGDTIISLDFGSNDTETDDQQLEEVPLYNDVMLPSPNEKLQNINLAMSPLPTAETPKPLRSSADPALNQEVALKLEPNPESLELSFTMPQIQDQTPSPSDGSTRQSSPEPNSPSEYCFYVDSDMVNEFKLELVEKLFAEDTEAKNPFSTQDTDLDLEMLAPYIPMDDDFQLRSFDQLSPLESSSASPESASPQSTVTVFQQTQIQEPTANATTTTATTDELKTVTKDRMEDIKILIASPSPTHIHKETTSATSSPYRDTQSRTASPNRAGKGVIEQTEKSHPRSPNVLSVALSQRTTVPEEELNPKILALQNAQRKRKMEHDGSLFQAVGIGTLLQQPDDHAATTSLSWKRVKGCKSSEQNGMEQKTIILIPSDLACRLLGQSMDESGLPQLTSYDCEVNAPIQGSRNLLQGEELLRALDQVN
T1 sequence (Q16665 whole entry): as above

## CC[C@H](C)[C@@H]1NC(=O)[C@H](CC(C)C)NC(=O)[C@H](CCCNC(=N)N)NC(=O)[C@H](CS)NC(=O)[C@H](Cc2ccc(I)cc2)NC(=O)[C@H]([C@@H](C)CC)NC1=O [cyclo-CRLII(4-iodo)F] (cyclo(CRLII[Phe(4-I)]))
HIF-1α in Panc-1 cells
  increased level of HIF-1α protein compared to DMSO control: 2.9 ± 0.4 fold
HIF-1α/HIF-1β PPI
  PLA signal (red puncta) of the HIF-1α/HIF-1β PPI: red puncta are absent; also recorded: the red puncta were not observed

Source: publication PMC10996005, “Identification and Development of Cyclic Peptide Inhibitors of Hypoxia Inducible Factors 1 and 2 That Disrupt Hypoxia-Response Signaling in Cancer Cells” (Journal of the American Chemical Society, 2024)
